Results taken from patent US20260041637A1, “VESICLES BASED ON GLUCOSE-DERIVED SURFACTANTS AND PHYTOSTEROLS” (NANOMOL TECHNOLOGIES, S.L., priority 2022, published 2026).
Values belong to the molecule of their own block, whether it stands above or below them.

How the values were obtained:
[1] = Antioxidant capacity by 2,2-diphenyl-1-picrylhydrazyl (DPPH) assay; format: biochemical; conditions: molar ratio DPPH:TCP 1:0.3, 30 minutes in the dark, 517 nm; mean ± s.d. of two independent experiments
Method: DPPH assay is a well-known and established method to measure antioxidant capacity of a molecule. […] When DPPH is in its oxidated form presents a violet color that changes to yellow/white when is reduced. This color change can be followed using UV-Vis spectroscopy. The assay was carried out in ethanol always maintaining a molar ratio DPPH: TCP of 1:0.3. In order to have 3 mL of final volume, DPPH was diluted in ethanol to have a final concentration of 63.4 μM. Free TCP and TCP DELOS-NVs were diluted to have a final concentration of 19 µM of TCP. Each solution was then mixed and kept at room temperature for 30 minutes in the dark. The absorbance of the solution was measured at 517 nm using a Thermo Scientific™ Evolution™ 201/220 UV-Visible spectrophotometer (Thermo Scientific). The percentage of TCP antioxidant capacity was calculated using the Equation 3, where Abscontrol is the absorbance at 517 nm of DPPH in ethanol and Abssample is the absorbance at 517 nm of the sample prepared as described (free TCP or TCP DELOS-NVs with DPPH).
The antioxidant capacity of TCP was evaluated once it was integrated in the NVs to verify that the molecule was still active after the encapsulation. The antioxidant capacity was measured by the 2,2-diphenyl-1-picrylhydrazyl (DPPH) assay. DPPH is a stable free radical that can be reduced in the presence of hydrogen-donating antioxidants such as TCP. […]

[2] = Entrapment efficiency (EE) by UV-Vis spectroscopy; format: physicochemical
Method: Entrapment efficiency (EE) of each active was determined by UV-Vis absorbance using an UV-Vis spectrophotometer (Thermo Scientific™ Evolution™ 201 UV-Visible Spectrophotometers, Thermo Scientific). For lipophilic actives (7-DHC, CBD, TCP, DiD and Dil) Vs membrane was dissociated to release the active by diluting the sample in ethanol at 80% (v/v) until a value of absorption below 1 and inside the calibration curve obtained. The concentration of each active was determined using a calibration curve, using the same media than the corresponding Vs system. The active was quantified before and after filtering process and both values were used to calculate the EE using Equation 1 (as described herein). As the lipophilic molecules are not soluble in aqueous media, it was considered that the filtered sample contained only the integrated active, since all the precipitated and non-integrated active should remain in the filter.
A different protocol was followed for hydrophilic actives (NCA, AG and MTX), in which, after the Vs filtration process, another step was applied to separate the non-integrated active. For NCA and AG, an ultracentrifugation step of the filtered sample was performed (6h, 4° C., 600000g) (Sorvall Discovery M150 Micro-Ultracentrifuge, Thermo Scientific). […]

[3] = Entrapment efficiency (EE) by fluorescence spectroscopy (proteins); format: physicochemical
Method: iii) Entrapment efficiency (EE) by fluorescence spectroscopy: Entrapment efficiency (EE) of both proteins was determined by fluorescence spectroscopy using a Varian Cary Eclipse (Agilent Technolo-gies, Santa Clara, USA). In both cases, the separation of the non-integrated protein from that integrated in Vs was done by TFF (KrosFlo® Research 11i TFF diafiltration system (KR2i), with a mPES filter hollow column cut-off 300 KDa (C04-E100-05-N, Spectrum Labs, SL). Then, the permeate fraction was recovered and analyzed by fluorescence, exciting the proteins at 278 nm. The concentration was calculated using a calibration curve using the same media of the corresponding Vs system. The entrapment efficiency was then calculated using Equation 2, as described herein.

Molecule: Cc1c(C)c2c(c(C)c1O)CCC(C)(CCCC(C)CCCC(C)CCCC(C)C)O2 (racemic) [Free TCP, DL-alpha-Tocopherol]
- Antioxidant capacity (%) [1]: 60 ± 9%

Molecule: C=C(C)[C@@H]1CCC(C)=C[C@H]1c1c(O)cc(CCCCC)cc1O [CBD, cannabidiol]
- EE [%] ([2]; active-loaded Sit:LGC (1:1) and Sit:LGL:LGC (1:0.8:0.2) Vs): 22-33%

- EE [%] ([2]; active-loaded Sit:LGL-p:DC-Chol (0.8:1:0.2) Vs): 88%
Molecule: CN(Cc1cnc2nc(N)nc(N)c2n1)c1ccc(C(=O)N[C@@H](CCC(=O)O)C(=O)O)cc1 [MTX, Methotrexate]

Molecule: HGH: Human growth hormone, small protein, encapsulated active
- EE [%] ([3]; protein (HGH) in Sit:LGL-p:DC-Chol (0.8:1:0.2) Vs): over 99%

Molecule: b-FGF: basic fibroblast growth factor, small protein, encapsulated active
- EE [%] ([3]; protein (b-FGF) in negatively charged Sit:LGC (1:1) Vs): > 99%
